What was measured:
[1] = tested on: Pmel17 mRNA; test: Evaluation of lung metastases by Pmel17 mRNA in lungs of B16F10 tumor-bearing mice; format: in vivo; settings: stabilizer I.P., GM-CSF I.T., vs vehicle control; FIG. 5
Experimental: Lung metastases were evaluated by detection of mRNA for melanocyte-specific proteins within the lungs of tumor-bearing mice. B16F10 tumor-bearing mice were treated with GM-CSF and/or the disclosed HIF-2α stabilizer, as depicted in FIG. 3. At the time of sacrifice, lungs were excised and flash-frozen in liquid nitrogen. Frozen lungs were homogenized in liquid nitrogen and the pulverized material was dissolved in TRIzol™ reagent (Invitrogen). […] The melanocyte-specific Pmel17 was detected by nested PCR using a modification of the protocol described by Tsukamoto et al. For the initial reaction, 30 cycles of PCR were carried out (95° C. for 1 minute, 58° C. for 1 min, 72° C. for 1 min) in a 20 μL reaction volume containing 2 μL of cDNA. […] Data were analyzed according to the comparative threshold method and normalized against the GAPDH internal control transcript. Results are semi-quantitative and represent the fold difference in transcript levels in vehicle-treated control mice as compared with levels in mice treated with the disclosed HIF-2α stabilizer and/or GM-CSF.
Lung metastases were evaluated by detection of mRNA for melanocyte-specific proteins within the lungs of tumor-bearing mice. […] Data were analyzed according to the comparative threshold method and normalized against the β-actin internal control transcript. […]

[2] = tested on: sVEGFR-1; test: sVEGFR-1 production by human peripheral blood monocytes (ELISA, real-time PCR); format: cell-based; settings: monocytes with 100 ng/mL GM-CSF plus 10 μM compound vs GM-CSF alone, FIG. 11B
Experimental: Human peripheral blood mononuclear cells (PBMCs) were isolated from fresh peripheral blood leukocyte source packs (American Red Cross, Columbus Ohio) by density gradient centrifugation over Lymphocyte Separation Medium (Cellgro). Monocytes were purified from total PBMCs by layering over FBS. Monocytes were cultured in endotoxin-free RPMI-1640 supplemented with 1% fetal bovine serum (FBS), 0.1% human serum albumin (HSA), and 10 μg/mL of the endotoxin inhibitor polymyxin B. In some experiments, freshly isolated monocytes were differentiated into macrophages by three-day culture in media containing 10% FBS, 1% PSA (penicillin G sodium, streptomycin sulfate, and amphotericin B), and 20 ng/mL M-CSF. Macrophages were serum-starved for 2 hours prior to stimulation. Monocytes or monocyte-derived macrophages were treated for 24 hours with 10 ng/mL GM-CSF, 10 μM disclosed HIF-2α stabilizer, or an equivalent volume of the vehicle controls (PBS or DMSO, respectively). Cell-free culture supematants were harvested and analyzed for VEGF or sVEGFR-1 by ELISA (R&D Systems).
Human monocytes were left untreated or were stimulated with 100 ng/mL GM-CSF at normoxia or at 0.5% O2. At various time-points, cells were harvested in Trizol reagent (Invitrogen) and RNA was extracted in chloroform and then purified using the RNeasy Minikit (Qiagen). In murine studies, organs harvested at the time of euthanasia were flash-frozen in liquid nitrogen, pulverized in liquid nitrogen, and then dissolved in Trizol. cDNA was generated from 1 μg of RNA using the Superscript First Strand Synthesis System (Invitrogen) and used for real-time PCR using previously described primers and SYBR Green PCR Master Mix (Applied Biosciences), according to the manufacturer's instructions. Data were analyzed according to the comparative threshold method and normalized against the β-actin internal control transcript. Results are semi-quantitative and represent the fold difference in transcript levels in a particular sample as compared with levels in untreated cells from the same donor.

[3] = tested on: A375 human melanoma cells; test: A375 human melanoma tumors in SCID mice; format: in vivo; settings: at the time of sacrifice; stabilizer 17 mg/kg, docetaxel 1 mg/kg, IP 3 times per week
Experimental: 6-8-week-old C57BL/6 mice or SCID mice were injected with 1×10^5 B16F10 murine melanoma cells or 1×10^6 A375 human melanoma cells, respectively, subcutaneously on the left flank. […] Tumor diameters were measured 3 times per week with calipers, and tumor volumes will be calculated as follows: Tumor volume=0.5×[(large diameter)×(small diameter)^2].
In the study, immunocompromised SCID mice were inoculated with A375 human melanoma tumors subcutaneously. Starting when the tumors became palpable (7 days after injection), mice were treated with either the cytotoxic chemotherapy docetaxel or with the disclosed HIF-2α stabilizer. The disclosed HIF-2α stabilizer was given at a dose of 17 mg/kg, and the docetaxel was given at 1 mg/kg. Both drugs were given IP 3 times per week. […] At the time of sacrifice, the tumors in the mice that received only the disclosed HIF-2α stabilizer were approximately 78% of the size of the control tumors, the tumors of the mice that received only chemotherapy were approximately 50% of the size of the control tumors, and the tumors of the mice that received both drugs were approximately 16% of the size of the control tumors.

`O=C(O)CNC(=O)c1ncc(-c2cccc(F)c2)cc1O` [disclosed HIF-2α stabilizer, {[5-(3-Fluorophenyl)-3-hydroxypyridine-2-carbonyl]amino} acetic acid] was tested, and the “relative metastasis to the lung (Pmel17 mRNA expression)” value [1] was “reduced metastasis”, the “sVEGFR-1 production, protein level” value ([2]; p=0.007) was “increased significantly” and the “sVEGFR-1 production, transcript level” value ([2]; p=0.033) was “increased significantly”. For the same molecule, the “tumor size as % of the size of the control tumors” value [3] was “approximately 78%”.

From patent publication US20170105981A1, “METHODS FOR STABILIZING HYPOXIA INDUCIBLE FACTOR-2 ALPHA AS A METHOD FOR TREATING CANCER” (The Ohio State Innovation Foundation, priority 2011, published 2017)
